Data from patent US20250177481A1, “SCO-spondin-derived polypeptides for enhancing synaptic transmission” (AXOLTIS PHARMA, priority 2021, published 2025).
Where “and” joins values, the source holds several entries; their conditions need not be identical. Identical values can stand only once. Positions of bridges follow the written chain, without caps; N, C: chain ends. No end group written: not given here.

Columns and labels:
[1] = tested on: Schaffer collateral-CA1 synaptic transmission in mouse hippocampal slices after OGD; assay: fEPSP recovery after OGD in hippocampal slices, treatment from the end of OGD or during recovery plateau (Example 8); assay type: cell-based, C57Bl6/J mice; settings: for averaged normalized f-EPSP slope: NX218 250 μg/mL from the end of OGD, n=10 slices
Description: Two extra slices were also be recorded to evaluate a possible curative capacity of NX218 against hypoxia.
Animals: see Example 7. In total, 10 mice were used in this study. An additional mouse was used to obtain two extra slices for preliminary recordings (“test slices)”.
Mice brain slice preparation: see Example 7
Conditions of Example 7 are used, except:
Measurements of evoked field excitatory postsynaptic potential (fEPSP) recovery after OGD were continued for 120 min from TO (OGD initiation). Two “test slices” were also done according to the experimental design described above.
Oxygen-glucose deprivation: see Example 7. In this study, the mean OGD duration was 10.6±1.0 min. Data processing and statistical analysis: see Example 7.

[2] = tested on: Schaffer collateral-CA1 synaptic transmission in mouse hippocampal slices after OGD; assay: fEPSP recovery after oxygen-glucose deprivation (OGD) in hippocampal slices, treatment during OGD (Example 7); assay type: cell-based, C57Bl6/J mice; settings: NX218 250 μg/mL during OGD, n=9 slices
Description: Acute episodes of hypoxia may cause a depression in synaptic activity in many brain regions. […] To meet this goal, functional recovery was assessed by recording evoked field excitatory postsynaptic potentials (fEPSPs) in mouse hippocampal neurons, before and after oxygen-glucose deprivation (OGD).
Experiments were carried out with 4-5 weeks old male C57Bl6/J mice (approximately 20 grams) obtained from Charles River, France. In total, 9 mice were used in this study. Two slices were recorded from each mouse (one for the control condition and another for the NX218 condition). Animals were acclimated to laboratory housing conditions for 13 days prior to experimental use. Standard Food (Type a04, SAFE, France) was available ad libitum. Filtered mains drinking water ([…]) was available ad libitum.
Sagittal hippocampal brain slices were obtained using standard brain slicing methods (approximately 6 slices per mouse) (Knobloch et al. 2007). Mice were anesthetized with 5% isoflurane and then decapitated. Brain was dissected out of the cranium and immediately immersed in ice-cold freshly prepared artificial cerebrospinal fluid (aCSF) containing: 124 mM NaCl, 3.75 mM KCl, 2 mM MgSO4, 2 mM CaCl2, 26.5 mM NaHCO3, 1.25 mM NaH2PO4, 10 mM glucose, continuously oxygenated (95% O2, 5% CO2) (pH=7.4) for a total duration of 3-4 minutes. Acute slices (350 μm thick) were prepared using a vibratome (VT 1000S; Leica Microsystems, Bannockburn, IL). […]
For electrophysiological recordings, a single slice was placed in the recording chamber (room temperature), submerged and continuously superfused with gassed aCSF (95% O2, 5% CO2; pH=7.4) at a constant rate (2 mL min^−1) for the reminder of the experiment. Extracellular field excitatory postsynaptic potentials (fEPSPs) were recorded in the CA1 stratum radiatum using a glass micropipette filled with aCSF. fEPSPs were evoked by the electrical stimulation of Schaffer collateral-commissural pathway at 0.1 Hz (i.e., a single pulse every 10 s) with a glass stimulating electrode (borosilicate capillary glass with filament, standard wall; OD: 1.5 mm; ID: 0.86 mm; Length: 75 mm; ref: W3 30-0060 from Harvard Apparatus) placed in the stratum radiatum.
At the beginning of each experiment (when a stable fEPSP response was reached), Input/Output (I/O) curves were obtained by gradual increases in stimulus intensity (from 0 to 100 μA, 10 μA intervals) to determine the intensity of stimulation that was kept for the reminder of the experiment. Stable baseline fEPSPs was then recorded during 10 minutes by stimulating at 80% of maximal field amplitude (single pulse every 10 s, i.e., 0.1 Hz). […]

W-S-G-W-S-S-C-S-R-S-C-G [NX218] (WSGWSSCSRSCG; disulfide 7-11 (inferred))
averaged normalized f-EPSP slope ([1]; 0-30 min after start of OGD, vehicle 28.497): 25.758 % of baseline
averaged normalized f-EPSP slope ([1]; 30-60 min after start of OGD, vehicle 53.456): 52.556 % of baseline
averaged normalized f-EPSP slope ([1]; 60-90 min after start of OGD, vehicle 68.774): 74.616 % of baseline
averaged normalized f-EPSP slope ([1]; 90-120 min after start of OGD, vehicle 77.110): 88.0±1.9 % of baseline and 88.046 % of baseline
shape of the f-EPSP recovery phase following OGD (curative effect) ([1]; NX218 250 μg/mL applied during recovery plateau, T=60 min or T=70 min after OGD initiation, preliminary, n=1 per timepoint): rising further toward baseline
averaged normalized f-EPSP slope ([1]; last 10 min (of 120 min) after start of OGD, vehicle 79.319): 90.3±2.7 % of baseline and 90.340 % of baseline
averaged normalized f-EPSP slope ([2]; 0-30 min after start of OGD, vehicle 31.618): 31.043 % of baseline
averaged normalized f-EPSP slope ([2]; 30-60 min after start of OGD, vehicle 47.152): 61.7±5.0 % of baseline and 61.663 % of baseline
averaged normalized f-EPSP slope ([2]; 60-90 min after start of OGD, vehicle 69.598): 88.0±2.6 % of baseline and 87.959 % of baseline
averaged normalized f-EPSP slope ([2]; last 10 min (of 90 min) after start of OGD, vehicle 72.432): 92.6±2.4 % of baseline and 92.639 % of baseline
